Test system: Plasmodium berghei
Experiment: Luciferase/luciferin-expressing antifolate-resistant parasites were used to infect a culture of HepG2 cells that were pre-incubated with compounds. Infected hepatocytes emit light due to the luciferase reaction. Assay results are presented as the percent inhibition of light emission compared to control. […]
Type: functional
Settings: sporozoite; for IC90: read-out: LUCIFERASE INFECTION ASSAY - IC90
[1] = read-out: LUCIFERASE INFECTION ASSAY - IC50

SMILES: CN(Cc1ccc(Cl)s1)C(=O)Cn1ncc(Br)c(Br)c1=O
- IC50 (HEPG2TOX_HILL_SLOPE 8.71, HEPG2TOX_R_SQUARED 0.0596, PBLUC_HILL_SLOPE 2.5, PBLUC_R_SQUARED 0.642, read-out: LUCIFERASE INFECTION ASSAY - IC50): 3.61 µM
- IC90: 8.7 µM

SMILES: CNC(=O)c1ccc(CN(Cc2ccco2)C(=O)c2cc(-c3cccs3)nn2-c2ccccc2)cc1
- IC50 (PBLUC_HILL_SLOPE 10.4, PBLUC_R_SQUARED 0.208, read-out: LUCIFERASE INFECTION ASSAY - IC50): 3.79 µM
- IC90: 4.68 µM

SMILES: Cc1c(C(=O)Nc2cccc(Cl)c2)sc2nc(C(F)(F)F)nn12
- IC50 [1]: > 9.15 µM
- IC90: > 9.15 µM

SMILES: CN(C)CCNC(=O)c1cccc(-c2cnc3ccc(-c4cccc(NS(C)(=O)=O)c4)nn23)c1
- IC50 (HEPG2TOX_HILL_SLOPE 1.31, HEPG2TOX_R_SQUARED 0.978, PBLUC_HILL_SLOPE 2.06, PBLUC_R_SQUARED 0.888, read-out: LUCIFERASE INFECTION ASSAY - IC50): 0.447 µM
- IC90: 1.3 µM

SMILES: CCCCNC(=O)c1c(NC(=O)c2ccc(Cl)cc2Cl)nc2ccc(C)cn12
- IC50 (FFLUC_HILL_SLOPE 0.85, FFLUC_R_SQUARED 0.0513, HEPG2TOX_HILL_SLOPE 0.9, HEPG2TOX_R_SQUARED 0.94, PBLUC_HILL_SLOPE 2.97, PBLUC_R_SQUARED 0.791, read-out: LUCIFERASE INFECTION ASSAY - IC50): 0.826 µM
- IC90: 1.73 µM

SMILES: Cc1cnc(Nc2ncnc3ccccc23)s1
- IC50 [1]: > 10 µM
- IC90: > 10 µM

SMILES: CN(C)C(=O)c1cccc(-c2cn3c(-c4ccc(C(C)(C)C)cc4)cnc3cn2)c1
- IC50 (PBLUC_HILL_SLOPE 1.19, PBLUC_R_SQUARED 0.783, read-out: LUCIFERASE INFECTION ASSAY - IC50): 2.27 µM
- IC90: > 8.28 µM

SMILES: CCOC(=O)c1cc(-c2ccccc2)sc1NC(=O)CSc1nnc(-c2cccnc2)n1-c1ccccc1C
- IC50 (PBLUC_HILL_SLOPE 3.21, PBLUC_R_SQUARED 0.715, read-out: LUCIFERASE INFECTION ASSAY - IC50): 6.74 µM
- IC90: > 10 µM

SMILES: C[C@]12CCC3C(CC[C@]4(O)C[C@@H](O)CC[C@]34/C=N/O)[C@@]1(O)CC[C@@H]2C1=CC(=O)OC1 (some centres undefined)
- IC50 (HEPG2TOX_HILL_SLOPE 2.86, HEPG2TOX_R_SQUARED 0.935, PBLUC_HILL_SLOPE 2.2, PBLUC_R_SQUARED 0.866, read-out: LUCIFERASE INFECTION ASSAY - IC50): 0.0609 µM
- IC90: 0.165 µM

SMILES: Cc1c(N/N=C(/C(=O)Nc2ccccc2)C(=O)c2ccccc2)c(=O)n(-c2ccccc2)n1C
- IC50 (PBLUC_HILL_SLOPE 4.97, PBLUC_R_SQUARED 0.638, read-out: LUCIFERASE INFECTION ASSAY - IC50): 8.09 µM
- IC90: > 10 µM

SMILES: N#Cc1nc(=O)n(-c2ccc(OC(F)(F)F)cc2)c(N)c1/N=C/c1ccc(C(F)(F)F)cc1
- IC50 (FFLUC_HILL_SLOPE 11.8, FFLUC_R_SQUARED 0.146, HEPG2TOX_HILL_SLOPE 2.94, HEPG2TOX_R_SQUARED 0.795, PBLUC_HILL_SLOPE 2.18, PBLUC_R_SQUARED 0.738, read-out: LUCIFERASE INFECTION ASSAY - IC50): 1.76 µM
- IC90: 4.82 µM

SMILES: NC(COCc1ccccc1)c1csc(NC(=O)Nc2cccc(C(F)(F)F)c2)n1 (centres undefined)
- IC50 (HEPG2TOX_HILL_SLOPE 2.5, HEPG2TOX_R_SQUARED 0.677, PBLUC_HILL_SLOPE 2.37, PBLUC_R_SQUARED 0.435, read-out: LUCIFERASE INFECTION ASSAY - IC50): 5.16 µM
- IC90: > 7.56 µM

SMILES: Cc1ccc(-c2nc3c(c(SCCN4CCCC4)n2)COC(C)(C)C3)cc1
- IC50 (PBLUC_HILL_SLOPE 2.75, PBLUC_R_SQUARED 0.0927, read-out: LUCIFERASE INFECTION ASSAY - IC50): 7.13 µM
- IC90: > 8.6 µM

SMILES: COc1cncc(-c2cc(Nc3ccc(Oc4ccccc4)cc3)ncn2)c1
- IC50 (PBLUC_HILL_SLOPE 10.3, PBLUC_R_SQUARED 0.501, read-out: LUCIFERASE INFECTION ASSAY - IC50): 7.76 µM
- IC90: > 8.91 µM

SMILES: CC(=O)N1N=C(c2ccccc2O)CC1c1c(F)cccc1Cl (centres undefined)
- IC50 (HEPG2TOX_HILL_SLOPE 8.22, HEPG2TOX_R_SQUARED 0.351, PBLUC_HILL_SLOPE 15.6, PBLUC_R_SQUARED 0.178, read-out: LUCIFERASE INFECTION ASSAY - IC50): 8.59 µM
- IC90: 9.88 µM

SMILES: Cc1ccc(NC(=O)c2cc3c(s2)CCCCCC3)nc1
- IC50 (PBLUC_HILL_SLOPE 0.925, PBLUC_R_SQUARED 0.636, read-out: LUCIFERASE INFECTION ASSAY - IC50): 0.551 µM
- IC90: 5.93 µM

SMILES: O=c1c(Cl)c2[nH]c3ccccc3nc-2c2ccccc12
- IC50 [1]: > 11.8 µM
- IC90: > 11.8 µM

SMILES: CN(CCOc1ccc(Br)cc1)CC(O)COc1ccc(C#N)cc1 (centres undefined)
- IC50 [1]: 8.69 µM
- IC90: > 10 µM

SMILES: COc1ccc(Cn2nc(C(=O)NC3CCCC3)c3c2CCN(Cc2ccc4c(c2)CCO4)C3)cc1
- IC50 (PBLUC_HILL_SLOPE 3.3, PBLUC_R_SQUARED 0.745, read-out: LUCIFERASE INFECTION ASSAY - IC50): 3.79 µM
- IC90: > 6.78 µM

SMILES: Cc1ccc(-n2c(N(C)C)nc(/C=C(\C#N)C(=O)NC(C)c3ccccc3)c2Cl)cc1 (centres undefined)
- IC50 (FFLUC_HILL_SLOPE 1.62, FFLUC_R_SQUARED 0.252, read-out: LUCIFERASE INFECTION ASSAY - IC50): > 10 µM
- IC90: > 10 µM

SMILES: CCc1nc2ccc(C(=O)N3CCCCC3)cn2c1N(C)CCC(C)C
- IC50 [1]: > 9.26 µM
- IC90: > 9.26 µM

SMILES: O=C(Nc1cccc2c[nH]nc12)c1ccc(Oc2ccccc2)cc1
- IC50 (PBLUC_HILL_SLOPE 18.4, PBLUC_R_SQUARED 0.556, read-out: LUCIFERASE INFECTION ASSAY - IC50): 9.05 µM
- IC90: > 10 µM

SMILES: CC(C)(C)C(=O)CC(=O)Nc1ccc(C(F)(F)F)cc1
- IC50 (FFLUC_HILL_SLOPE 0.143, FFLUC_R_SQUARED 0.0864, PBLUC_HILL_SLOPE 0.817, PBLUC_R_SQUARED 0.0775, read-out: LUCIFERASE INFECTION ASSAY - IC50): > 11.5 µM
- IC90: > 11.5 µM

SMILES: COc1cccc(C(=O)N(c2nc3ccccc3s2)c2c(C)cccc2C)c1
- IC50 (PBLUC_HILL_SLOPE 0.58, PBLUC_R_SQUARED 0.199, read-out: LUCIFERASE INFECTION ASSAY - IC50): > 10 µM
- IC90: > 10 µM

SMILES: FC(F)(F)Oc1ccc(-c2cnc3ccc(NCc4ccncc4)nn23)cc1
- IC50 (HEPG2TOX_HILL_SLOPE 0.34, HEPG2TOX_R_SQUARED 0.62, PBLUC_HILL_SLOPE 3.72, PBLUC_R_SQUARED 0.739, read-out: LUCIFERASE INFECTION ASSAY - IC50): 0.649 µM
- IC90: 1.17 µM

SMILES: CSc1sc(C(=O)OC2CCCCC2)c2c1C(=O)CC(C)(C)C2
- IC50 (FFLUC_HILL_SLOPE 35.3, FFLUC_R_SQUARED 0.0335, read-out: LUCIFERASE INFECTION ASSAY - IC50): > 9.36 µM
- IC90: > 9.36 µM

SMILES: CN(C)c1nn(C(=O)Nc2cccc(C(F)(F)F)c2)cc1-c1ccccc1
- IC50 (PBLUC_HILL_SLOPE 19.3, PBLUC_R_SQUARED 0.463, read-out: LUCIFERASE INFECTION ASSAY - IC50): 7.52 µM
- IC90: 8.43 µM

SMILES: O=C(Nc1ccc(N2CCN(c3ccc(C(F)(F)F)cn3)CC2)nc1)c1cccs1
- IC50 (PBLUC_HILL_SLOPE 0.747, PBLUC_R_SQUARED 0.763, read-out: LUCIFERASE INFECTION ASSAY - IC50): 0.638 µM
- IC90: > 7.61 µM

SMILES: CN(C)c1nc(N)c2c(N)nc3c(cc(O)n3C(=O)NC34CC5CC(CC(C5)C3)C4)c2c1C#N
- IC50 [1]: 5.64 µM
- IC90: > 10 µM

SMILES: Cc1ccc(NC(=O)C2(C)CCN2Cc2ccccc2Cl)cc1O (centres undefined)
- IC50 (PBLUC_HILL_SLOPE 11.9, PBLUC_R_SQUARED 0.388, read-out: LUCIFERASE INFECTION ASSAY - IC50): 8.78 µM
- IC90: > 9.57 µM

SMILES: CC(C)c1csc(NC(=O)c2cnn(-c3ccccc3F)c2C(F)(F)F)n1
- IC50 (FFLUC_HILL_SLOPE 1.67, FFLUC_R_SQUARED 0.227, HEPG2TOX_HILL_SLOPE 2.85, HEPG2TOX_R_SQUARED 0.664, PBLUC_HILL_SLOPE 0.553, PBLUC_R_SQUARED 0.884, read-out: LUCIFERASE INFECTION ASSAY - IC50): 0.0438 µM
- IC90: 2.32 µM

SMILES: CC(NC(=O)c1cc(C2CC2)nn1-c1ccccc1)c1ccc(F)cc1F (centres undefined)
- IC50 (FFLUC_HILL_SLOPE 3.16, FFLUC_R_SQUARED 0.345, read-out: LUCIFERASE INFECTION ASSAY - IC50): > 10 µM
- IC90: > 10 µM

SMILES: Cc1cc(OCC(=O)NCCc2c(C)cc(C(C)(C)C)cc2C)no1
- IC50 (PBLUC_HILL_SLOPE 10.6, 8.08, PBLUC_R_SQUARED 0.262, 0.836, read-out: LUCIFERASE INFECTION ASSAY - IC50): 4.78 µM
- IC90: 6.12 µM

SMILES: Oc1cccc(-c2cnc3cnc(-c4ccc(Cl)cc4Cl)cn23)c1
- IC50 (HEPG2TOX_HILL_SLOPE 1.62, HEPG2TOX_R_SQUARED 0.949, PBLUC_HILL_SLOPE 1.81, PBLUC_R_SQUARED 0.693, read-out: LUCIFERASE INFECTION ASSAY - IC50): 0.634 µM
- IC90: 2.14 µM

SMILES: CC(=O)c1ccccc1NC(=O)CNc1ccccc1N(C)Cc1ccccc1
- IC50 (PBLUC_HILL_SLOPE 3.51, PBLUC_R_SQUARED 0.275, read-out: LUCIFERASE INFECTION ASSAY - IC50): 8.09 µM
- IC90: > 10 µM

SMILES: FC(F)(F)c1ccc(/C=N/Nc2c(Cl)cc(C(F)(F)F)cc2Cl)cc1
- IC50 [1]: > 8.23 µM
- IC90: > 8.23 µM

SMILES: Cc1oc(C(C)(C)C)cc1-c1cc(NC(=O)Nc2ccc(OC(F)(F)F)cc2)n(-c2cc(C(F)(F)F)cc(C(F)(F)F)c2)n1
- IC50 (HEPG2TOX_HILL_SLOPE 8.23, HEPG2TOX_R_SQUARED 0.187, PBLUC_HILL_SLOPE 2.09, PBLUC_R_SQUARED 0.645, read-out: LUCIFERASE INFECTION ASSAY - IC50): 1.57 µM
- IC90: 4.49 µM

SMILES: CCCc1ccc(-c2nc(-c3cccs3)no2)cc1
- IC90: 0.0812 µM

SMILES: O=C(N/N=C/c1sc(Nc2ccccc2)nc1Cl)c1cc(-c2ccncc2)nc2ccccc12
- IC50 [1]: > 10 µM
- IC90: > 10 µM

SMILES: C=CCn1c(Sc2nc(C)nc3sc4c(c23)CCC4)nnc1-c1ccco1
- IC50 (FFLUC_HILL_SLOPE 38.3, FFLUC_R_SQUARED 0.259, read-out: LUCIFERASE INFECTION ASSAY - IC50): > 10 µM
- IC90: > 10 µM

— ChEMBL document CHEMBL4483862, “Open-source discovery of chemical leads for next-generation chemoprotective antimalarials” (2018)
